Reference: patent US12448369B2 (Edgewise Therapeutics, Inc., priority 2023, dated 2025)

Columns and labels:
[1] = molecular target: T1, Porcine ventricle myofibrils (ventricular myosin ATPase) (Sus scrofa, UniProt P79293); assay: Myofibril ATPase assay, porcine ventricle myofibrils; format: biochemical, porcine (Yucatan minipigs); conditions: porcine ventricle myofibrils
T1 construct: Myofibrils from porcine cardiac muscle was isolated from the left ventricle of Yucatan minipigs; tissue Exemplar Genetics; host or cells: left ventricle of Yucatan minipigs, myofibrils prepared in house
Summary of the method: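 Myofibrils isolated from Yucatan minipig left ventricle; coupled PK/LDH NADH assay, pCa buffer pH 7.0, kinetic A340 reads over 75 min. Vehicle-normalized slopes fit 4PL; Y75/Y125 derived.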

[2] = system: Rabbit Psoas myofibrils (skeletal myosin ATPase); assay: Myofibril ATPase assay, rabbit psoas (skeletal) myofibrils; format: biochemical; conditions: rabbit psoas myofibrils
Summary of the method: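 Readout: A340 decline from NADH oxidation, PK/LDH-coupled to ADP release; kinetic reads over 75 min. Buffer: pCa (PIPES, CaCl2, EGTA), pH 7.0. Linear-regression slopes vs vehicle, 4PL fit; reported as concentration giving 75% (Y75) or 125% (Y125) of vehicle activity.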

[3] = system: Porcine atria myofibrils (atrial myosin ATPase); assay: Myofibril ATPase assay, porcine atria myofibrils; format: biochemical; conditions: porcine atria myofibrils
Summary of the method: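 Coupled PK-LDH readout, NADH loss at 340 nm, kinetic 75 min. Porcine atria myofibrils, pCa buffer (PIPES/CaCl2/EGTA, pH 7.0). Slopes (mAU/min) normalized to vehicle = 100%, 4-parameter fit; Y75 or Y125 reported.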

[4] = Y75 value (75% activity relative to no compound)
[5] = ‡ Y125 value, not a Y75 value (125% activity relative to no compound)

T1 sequence (P79293 whole entry): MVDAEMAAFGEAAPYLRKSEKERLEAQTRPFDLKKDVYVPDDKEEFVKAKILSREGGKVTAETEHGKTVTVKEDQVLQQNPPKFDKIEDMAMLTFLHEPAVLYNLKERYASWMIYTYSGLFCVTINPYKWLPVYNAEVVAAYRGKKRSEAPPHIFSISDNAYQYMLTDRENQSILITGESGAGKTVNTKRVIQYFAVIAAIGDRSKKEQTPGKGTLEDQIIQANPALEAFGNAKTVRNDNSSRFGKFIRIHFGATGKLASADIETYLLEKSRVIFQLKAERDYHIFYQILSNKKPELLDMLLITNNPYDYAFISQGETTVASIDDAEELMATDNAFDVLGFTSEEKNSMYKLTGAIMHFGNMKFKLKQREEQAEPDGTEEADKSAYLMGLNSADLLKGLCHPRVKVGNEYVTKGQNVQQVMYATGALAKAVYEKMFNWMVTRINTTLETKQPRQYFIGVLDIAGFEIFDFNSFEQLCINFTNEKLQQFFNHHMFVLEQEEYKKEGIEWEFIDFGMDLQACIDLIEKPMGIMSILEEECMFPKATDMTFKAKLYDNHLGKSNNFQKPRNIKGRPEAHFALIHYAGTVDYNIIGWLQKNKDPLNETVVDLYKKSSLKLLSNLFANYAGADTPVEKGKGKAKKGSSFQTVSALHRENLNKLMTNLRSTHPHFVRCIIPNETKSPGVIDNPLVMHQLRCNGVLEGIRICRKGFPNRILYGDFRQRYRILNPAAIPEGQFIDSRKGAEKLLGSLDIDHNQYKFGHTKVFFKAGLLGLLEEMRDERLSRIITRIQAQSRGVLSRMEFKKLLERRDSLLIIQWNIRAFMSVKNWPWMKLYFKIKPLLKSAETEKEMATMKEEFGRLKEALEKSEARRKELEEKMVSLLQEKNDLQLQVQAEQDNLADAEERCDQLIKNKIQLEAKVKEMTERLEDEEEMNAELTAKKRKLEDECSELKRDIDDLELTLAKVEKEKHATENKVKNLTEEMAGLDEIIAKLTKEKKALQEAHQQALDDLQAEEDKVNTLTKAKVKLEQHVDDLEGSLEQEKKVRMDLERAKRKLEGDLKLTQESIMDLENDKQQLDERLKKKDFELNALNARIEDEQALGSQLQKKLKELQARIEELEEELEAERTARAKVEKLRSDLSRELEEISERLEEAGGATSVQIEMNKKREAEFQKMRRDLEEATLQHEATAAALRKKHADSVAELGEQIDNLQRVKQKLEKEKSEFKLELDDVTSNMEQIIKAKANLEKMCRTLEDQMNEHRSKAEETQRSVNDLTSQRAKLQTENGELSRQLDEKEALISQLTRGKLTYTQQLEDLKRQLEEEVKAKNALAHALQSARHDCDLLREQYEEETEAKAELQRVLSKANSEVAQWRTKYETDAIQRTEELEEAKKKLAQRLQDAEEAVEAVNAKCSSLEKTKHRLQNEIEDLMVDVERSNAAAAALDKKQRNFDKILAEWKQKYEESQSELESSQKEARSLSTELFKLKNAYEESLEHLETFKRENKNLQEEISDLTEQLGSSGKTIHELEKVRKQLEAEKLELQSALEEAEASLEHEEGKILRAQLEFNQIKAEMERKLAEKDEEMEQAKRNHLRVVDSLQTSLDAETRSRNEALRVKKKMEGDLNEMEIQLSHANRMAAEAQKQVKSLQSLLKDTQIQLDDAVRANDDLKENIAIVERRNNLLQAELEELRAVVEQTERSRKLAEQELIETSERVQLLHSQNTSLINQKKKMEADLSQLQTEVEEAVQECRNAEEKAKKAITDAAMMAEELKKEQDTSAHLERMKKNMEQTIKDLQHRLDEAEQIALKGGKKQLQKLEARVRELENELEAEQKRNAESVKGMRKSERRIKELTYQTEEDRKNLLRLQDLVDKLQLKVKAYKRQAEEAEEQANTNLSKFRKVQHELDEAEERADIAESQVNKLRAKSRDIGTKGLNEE

Ventricular EC25 ([1]; Y75 value) [nM] | Skeletal EC25 ([2]; Y75 value) [µM] | Atrial EC25 [3, 4] [nM] | Ventricular EC25 ([1]; Y75 value (no ‡ mark)) [nM] | Skeletal EC25 ([2]; Y75 value (no ‡ mark)) [µM] | Atrial EC25 ([3]; Y75 value (no ‡ mark)) [nM] | Skeletal EC25 [2, 5] | Compound
970 | 0.06 | 140 | – | – | – | – | CCNc1nccc2[nH]c(=O)c(CC(=O)N[C@@H](C)c3ccc(F)cc3F)c(C)c12 [compound 351]
– | – | – | 100000 | 100.00 | 1900 | – | C[C@H](NC(=O)C1(c2cc3c(F)c(F)ccc3[nH]c2=O)CC1)c1ccc(C#N)cn1 (single isomer, unassigned) [compound 4810]
2340 | 0.19 | 110 | – | – | – | – | Cc1ccc2[nH]c(=O)c(CC(=O)N[C@@H](C)c3ccc(F)cc3F)c(C)c2n1 [compound 420]
– | – | – | 130 | 0.06 | 130 | – | Cc1c(C(F)(F)C(=O)N[C@@H](C)c2ncc(C#N)cc2F)c(=O)[nH]c2cccc(F)c12 (single isomer, unassigned) [compound 2533]
100000 | 34.09 | 100000 | – | – | – | – | Cc1nccc2[nH]c(=O)c(CC(=O)N[C@H](C)c3ccccc3O)c(C)c12 (single isomer, unassigned) [compound 320]
– | – | – | 1610 | 0.04 | 100 | – | CC(C(=O)N[C@@H](C)c1ccc(F)cc1F)c1c(C(F)(F)F)c2cc(F)ccc2[nH]c1=O (stereo partly drawn) [compound 113]
– | – | – | 1560 | 0.43 | 90 | – | C[C@@H](NC(=O)Cc1cc2c(F)c(F)ccc2[nH]c1=O)c1ccc(C#N)cn1 [compound 17]
7160 | 0.14 | 120 | – | – | – | – | Cc1c(CC(=O)N[C@@H](CO)c2ccc(C#N)cc2F)c(=O)[nH]c2ccc(C(F)(F)F)nc12 [compound 219]
18820 | 100.00 | 2610 | – | – | – | – | Cc1nccc2[nH]c(=O)c(C3(C(=O)N[C@@H](C)c4ncc(C#N)cc4F)CC3)c(C)c12 (single isomer, unassigned) [compound 3507]
– | – | – | 2980 | 1.29 | 11520 | – | O=C(Cc1cc2cc(F)ccc2[nH]c1=O)N1CC[C@@H]2C[C@H]1c1ccccc12 (single isomer, unassigned) [compound 4503]
– | – | – | 33850 | 2.39 | 710 | – | Cc1cc(F)cnc1[C@H](C)NC(=O)C1(c2cc3c(F)c(F)ccc3[nH]c2=O)CC1 (single isomer, unassigned) [compound 4806]
100000 | 100.00 | 100000 | – | – | – | – | Cc1nccc2[nH]c(=O)c(CC(=O)N[C@H](C)c3cccnc3O)c(C)c12 (single isomer, unassigned) [compound 302]
34760 | 2.47 | 100000 | – | – | – | – | Cc1c(CC(=O)N[C@H](C)c2ccc(F)cc2F)c(=O)[nH]c2ccnc(C#N)c12 [compound 269]
– | – | – | 5940 | 2.90 | 590 | – | Cc1cc(C#N)nnc1[C@@H](C)NC(=O)Cc1c(C)c2c(F)c(F)ccc2[nH]c1=O [compound 1135]
– | – | – | 680 | 0.06 | 180 | – | Cc1c(CC(=O)N[C@H](C)c2ccc(C#N)cn2)c(=O)[nH]c2ccc(F)c(C#N)c12 [compound 49]
100000 | 100.00 | 100000 | – | – | – | – | Cc1nccc2[nH]c(=O)c(CC(=O)N[C@@H](CO)c3ccccn3)c(C)c12 (single isomer, unassigned) [compound 317]
– | – | – | 1100 | – | 600 | 100.00‡ μM | C[C@@H](NC(=O)[C@H](C)c1cc2c(F)c(F)ccc2[nH]c1=O)c1ncc(C#N)cc1F (single isomer, unassigned) [compound 2598]
100 | 0.01 | 40 | – | – | – | – | Cc1c(CC(=O)N[C@@H](C)c2ccc(C#N)cc2F)c(=O)[nH]c2ccnc(C#N)c12 (single isomer, unassigned) [compound 283]
100000 | 100 | 100000 | – | – | – | – | Cc1nncc2[nH]c(=O)c(CC(=O)N[C@H](C)c3ccc(F)cc3F)cc12 [compound 499]

Ventricular EC25 ([1]; Y75 value) [nM] | Skeletal EC25 ([2]; Y75 value) [µM] | Atrial EC25 [3, 4] [nM] | Ventricular EC25 ([1]; Y75 value (no ‡ mark)) [nM] | Skeletal EC25 ([2]; Y75 value (no ‡ mark)) [µM] | Atrial EC25 ([3]; Y75 value (no ‡ mark)) [nM] | Skeletal EC25 [2, 5] | Compound
– | – | – | 90 | 0.05 | 320 | – | N#Cc1cnc2c(c1)OC[C@H]2NC(=O)Cc1cc2c(F)c(F)ccc2[nH]c1=O (single isomer, unassigned) [compound 13]
– | – | – | 280 | 0.05 | 40 | – | Cc1c([C@@H](C)C(=O)N[C@@H](C)c2ccc(F)cc2F)c(=O)[nH]c2ccc(F)c(F)c12 (single isomer, unassigned) [compound 108]
34950 | 4.20 | 8210 | – | – | – | – | Cc1c(CC(=O)N[C@H](CO)c2ccc(F)cc2F)c(=O)[nH]c2ccnc(C#N)c12 [compound 229]
52300 | 4.25 | 7210 | – | – | – | – | C[C@H](NC(=O)Cc1c(Cl)c2cnccc2[nH]c1=O)c1ccc(C#N)cn1 [compound 454]
100000 | 100.00 | 100000 | – | – | – | – | Cc1cccc([C@H](CO)NC(=O)Cc2c(C)c3c(C)nccc3[nH]c2=O)c1 (single isomer, unassigned) [compound 313]
– | – | – | 2650 | 1.02 | 280 | – | Cc1c(C(F)(F)C(=O)N[C@H](C)c2ncc(F)cc2F)c(=O)[nH]c2ccc(F)cc12 (single isomer, unassigned) [compound 4819]
– | – | – | 100 | 0.02 | 60 | – | Cc1c(CC(=O)N[C@@H](C)c2ncc(C#N)cc2F)c(=O)[nH]c2cccc(F)c12 [compound 52]
– | – | – | 100000 | 100.00 | 2490 | – | Cc1cc([C@H](C)NC(=O)Cc2c(C)c3cc(F)ccc3[nH]c2=O)ncc1F [compound 1061]
– | – | – | 3120 | 0.17 | 190 | – | Cc1c(C(C)C(=O)N[C@@H](C)c2ccc(F)cc2F)c(=O)[nH]c2ccc(F)cc12 (stereo partly drawn) [compound 127]
49430 | 4.23 | 2800 | – | – | – | – | Cc1nccc2[nH]c(=O)c(CC(=O)N[C@@H]3CCc4cc(C#N)cc(F)c43)c(C)c12 (single isomer, unassigned) [compound 197]
– | – | – | 100000 | 29 | 100000 | – | Cc1ccncc1[C@H](C)NC(=O)Cc1c(C)c2cc(F)ccc2[nH]c1=O [compound 1049]
13930 | 0.03 | 160 | – | – | – | – | CCOc1ccc2[nH]c(=O)c(CC(=O)N[C@@H](C)c3ccc(F)cc3F)c(C)c2n1 [compound 414]
10160 | 0.05 | 250 | – | – | – | – | C[C@H](NC(=O)Cc1c(C(F)(F)F)c2cnccc2[nH]c1=O)c1ccc(F)cc1F [compound 447]
– | – | – | 100000 | – | 100000 | 61.98‡ μM | C[C@H](NC(=O)C(F)(F)c1cc2cc(F)ccc2[nH]c1=O)c1nccc(C#N)n1 (single isomer, unassigned) [compound 2560]
100000 | 17.50 | 10210 | – | – | – | – | Cc1c(CC(=O)N[C@@H](C)c2ccc(F)cc2F)c(=O)[nH]c2ccc(O)nc12 [compound 299]
530 | 0.03 | 270 | – | – | – | – | C[C@H](NC(=O)Cc1cc2c(F)nccc2[nH]c1=O)c1ccc(F)cc1F [compound 394]
– | – | – | 1270 | 0.81 | 3800 | – | N#Cc1cnc2c(c1)CC[C@H]2NC(=O)Cc1cc2c(F)c(F)ccc2[nH]c1=O (single isomer, unassigned) [compound 7]
– | – | – | 620 | 0.27 | 50 | – | Cc1c(CC(=O)N[C@H]2COc3cc(C#N)cc(F)c32)c(=O)[nH]c2ccc(F)c(C#N)c12 (single isomer, unassigned) [compound 60]
100000 | 9.89 | 100000 | – | – | – | – | Cc1cc([C@@H](C)NC(=O)Cc2cc3c(C#N)nccc3[nH]c2=O)ncc1F [compound 470]
